# Laboratory results from patent publication US20250144166A1, “COMPOSITIONS AND METHODS FOR INHIBITING RHO KINASE” (INTERLUDE BIOPHARMA CO., priority 2022, published 2025).
# “Also recorded” adds a separate entry of the source. Read-outs that look alike come from different tables or passages of the source.
# How the values were obtained:
# C2BBe1 intestinal cells = details: 10 mM LA; A/R injury; compared to non-treated A/R injured cells
# Experimental: Specifically, to evaluate barrier function, transepithelial electrical resistance (TEER) was measured in anoxia/reoxygenation (A/R)-injured C2BBe1 (Caco-2 brush border-expressing Caco-2) cells treated with or without larazotide acetate (LA). Monolayers of C2BBe1 were treated with LA (0.001, 0.1, 1, and 10 mM) and were subjected to anoxia for 2 hours followed by reoxygenation with 21% O2. To generate A/R injury, C2BBe1 cells were placed in a modular incubator chamber (Billups-Rothenberg, San Diego, CA) and flushed with 95% N2/5% CO2 for 5 minutes. The modular chamber was then sealed airtight and placed in an incubator for 2 hours. After 2 hours, the cells were removed from the modular incubator chamber and placed in a 21% O2 normal environment. TEER was measured to assess barrier function during A/R injury and recovery. The TEER was measured using a Chopstick Electrode Set (WPI, LLC, Sarasota, FL) on the basal and apical sides of a monolayer and attached to an Epithelial Volt Ohm Meter2 (WPI, LLC, Sarasota, FL).
# tight junction proteins = details: 10 mM LA
# Experimental: (§1) Specifically, the distribution of tight junction proteins and actin structure was evaluated using western blots on membrane and cytosol fractions and immunofluorescence microscope analysis. Mem-PER Eukaryotic Membrane Protein Extraction Reagent Kit (Thermo Scientific) was used to fractionate membrane and cytosolic compartment. The extracted proteins were blotted with primary antibodies anti-ZO-1 and anti-occludin (Invitrogen). The cold methanol fixed monolayers were stained with primary antibodies (ZO-1 and occludin) and phalloidin (F-actin) for immunofluorescence microscope analysis. The stained monolayers were examined with an Olympus IX83 Inverted Motorized Microscope with cellSens software (Olympus, Tokyo, Japan). pMLC-2/MLC-2 expression was evaluated using western blot analysis with primary antibodies for pMLC-2 and MLC-2 (CST, Danvers, MA).
# ZO-1, occludin, F-actin = system: ZO-1, occludin, F-actin
# Experimental: as §1
# C2BBe1 = system: C2BBe1
# Experimental: Specifically, monolayers of C2BBe1 were treated with 10 mM LA and were subjected to anoxia for 2 hours followed by reoxygenation with 21% O2 for 1 hour. Next-generation RNA sequencing and biostatistical analyses were employed to assess cellular regulatory pathways.
# C2BBe1 cells [1] = details: 10 mM LA
# Experimental: For barrier function analysis, TEER was measured in monolayers of C2BBe1 cells treated with or without 10 mM LA. TEER was measured using a Chopstick Electrode Set (WPI, LLC, Sarasota, FL) on the basal and apical sides of a monolayer and attached to an Epithelial Volt Ohm Meter2 (WPI, LLC, Sarasota, FL).
# C2BBe1 cells [2] = details: 10 mM LA; regular media; 48 hours
# Experimental: This experiment evaluated the role of LA in proliferation and migration. Specifically, proliferation of non-treated or LA-treated (10 mM) C2BBe1 cells was evaluated by the CCK-8 assay kit (Dojindo Molecular Technologies, Rockville, MD) according to the manufacturer's instructions. 10 mM LA was treated every other day to cells seeded in 96-well culture plates. Viable cells were evaluated with the CCK-8 Assay Kit for five consecutive days. Migration was assessed by seeding C2BBe1 cells in 3 well culture-inserts (ibidi GmbH, Gräfelfing, Germany) and removing the inserts after reaching confluence to create a “wound” in the cell monolayer. 10 mM LA was added to serum-free and regular media to assess migration and proliferation, respectively. Images were captured at 0, 4, 8, 24, and 48 hours with Axio Vert A1 microscope (Carl Zeiss AG, Oberkochen, Germany) and closing of the wound was analyzed by measuring migration distance with ImageJ software.
# C2BBe1 cells [3] = experiment: TEER in A/R-injured C2BBe1 cells with MLCK and ROCK inhibitors with or without LA; format: cell-based, human; details: 10 mM LA, 1 μM Y-27632 dihydrochloride, 400 μM Peptide 18; A/R injury; FIG. 7
# Experimental: To evaluate barrier function, the TEER was measured in A/R-injured C2BBe1 cells treated with or without LA.
# [4] = anoxic cells vs. exposed to LA for 3 h
# [5] = control vs. exposed to LA for 3 h
molecule,measurement,setting,value
larazotide acetate,TEER,C2BBe1 intestinal cells,significantly (p<0.001) increases the TEER; also recorded: significantly increased (p<0.001)
same,occludin in the membrane fraction (immunoblotting),"tight junction proteins; 1-hour reoxygenation, compared to non-treated anoxic injured cells",significantly (p<0.05) increased in the membrane
same,disruption of tight junction proteins during A/R injury,tight junction proteins; FIG. 3,prevented disruption of tight junction proteins
same,F-actin structure during A/R injury,"ZO-1, occludin, F-actin; 10 mM LA, FIG. 4",protected
same,"localization of tight junction and cytoskeleton proteins (ZO-1, occludin, F-actin) by immunofluorescence","ZO-1, occludin, F-actin; 1-hour reoxygenation, versus non-treated anoxic injured cells",revealed well-organized tight junction proteins and F-actin
same,translational processes (GO analysis),C2BBe1; LA-treated cells compared to non-treated cells,significantly increased
same,Expression compared to control: AMOTL2,C2BBe1; [4],Down
same,Expression compared to control: EGR1,C2BBe1; [4],Down
same,Expression compared to control: HES1,C2BBe1; [4],Down
same,Expression compared to control: HSPH1,C2BBe1; [4],Down
same,Expression compared to control: JPH2,C2BBe1; [4],Up
same,Expression compared to control: NDRG1,C2BBe1; [4],Up
same,Expression compared to control: PFKFB4,C2BBe1; [4],Up
same,Expression compared to control: SAMD5,C2BBe1; [4],Down
same,Expression compared to control: SLC2A3,C2BBe1; [4],Up
same,Expression compared to control: TNS1,C2BBe1; [4],Up
same,Ras/Rho GTPase-binding and protein serine/threonine kinase activity (GO analysis),"C2BBe1; cells treated with LA, FIG. 10",differentially expressed
same,Expression compared to control: CEBPB,C2BBe1; [5],Up
same,Expression compared to control: DDIT4,C2BBe1; [5],Up
same,Expression compared to control: EGR1,C2BBe1; [5],Up
same,Expression compared to control: H1F0,C2BBe1; [5],Up
same,Expression compared to control: ID2,C2BBe1; [5],Up
same,Expression compared to control: IGFBP4,C2BBe1; [5],Down
same,Expression compared to control: ITGA2,C2BBe1; [5],Down
same,Expression compared to control: MAT2A,C2BBe1; [5],Down
same,Expression compared to control: SAMD5,C2BBe1; [5],Down
same,Expression compared to control: SYTL2,C2BBe1; [5],Down
same,TEER,C2BBe1 cells [1]; compared to non-treated A/R injured cells at 1 hour after treatment (FIG. 12 legend),significantly increased TEER
same,TEER,"C2BBe1 cells [1]; normal conditions, FIG. 12",increased TEER
same,wound healing,C2BBe1 cells [2],significantly increased wound healing
O=S(=O)(c1cccc2cnccc12)N1CCCNCC1 [Fasudil],TEER compared to non-treated A/R injured cells,C2BBe1 cells [3],increased TEER
